Earlier results as cited in patent US20150328215A1, “STABLE AMORPHOUS RALTEGRAVIR POTASSIUM PREMIX AND PROCESS FOR THE PREPARATION THEREOF” (priority 2012, published 2015).

Key:
[1] = water
[2] = in vivo

| Compound | aqueous solubility [1] | bioavailability compared with Raltegravir free base [2] |
| --- | --- | --- |
| Cc1nnc(C(=O)NC(C)(C)c2nc(C(=O)NCc3ccc(F)cc3)c([O-])c(=O)n2C)o1.[K+] [potassium salt of Raltegravir, potassium N-(4-fluorobenzyl)-5-hydroxy-1-methyl-2-(1-methyl-1-{[(5-methyl-1,3,4-oxadiazol-2-yl)carbonyl]amino}ethyl)-6-oxo-1,6-dihydropyrimidine-4-carboxamide] | significantly more soluble in water | – |
| Cc1nnc(C(=O)NC(C)(C)c2nc(C(=O)NCc3ccc(F)cc3)c(O)c(=O)n2C)o1 [Raltegravir] | poor aqueous solubility | – |
| Cc1nnc(C(=O)NC(C)(C)c2nc(C(=O)NCc3ccc(F)cc3)c([O-])c(=O)n2C)o1.[K+] [Form 1] | – | superior bioavailability |
